Experimental data reported in patent US12594228B2, “Composition for hair protection or hair strengthening” (AMOREPACIFIC CORPORATION, priority 2024, dated 2026).

Legend:
[1] = Penetration and binding in hair by confocal microscopy; conditions: fluorescent substance applied to hair, FIG. 6, FIG. 7
Description: A green fluorescent substance (FITC; Fluorescein isothiocyanate) was conjugated to palmitoyl-CWK, a tripeptide (i.e., palmitoyl tripeptide) covalently bound to palmitic acid at the N-terminus (fluorescent labeling) and applied to hair. After that, the change in hair structure that affects the increase in hair tensile strength was confirmed by comparing the colored areas using a confocal microscopy.
Meanwhile, for comparison of hair penetration routes, the water-soluble fluorescent substance 5-(4-Dimethylaminobenzylidene) rhodanine was applied to the hair, and the colored area (indicated in gray in FIG. 7) was confirmed using a confocal microscope.

[2] = Tensile strength of bleached hair tresses treated with test substance (MTT175); design: species or system human; conditions: test substance 0.01 wt % in purified water and ethanol (80 wt %), about 30 minutes; FIG. 4, FIG. 5
Description: The compositions in Table 2 above were applied to human hair to compare tensile strength.
(§1) Specifically, bleached hair tresses (1 g, manufactured by Beaulax) were prepared. The hair tresses were washed using a basic shampoo without conditioning function, rinsed for 1 minute, and dried for 2 minutes. The dried hair tresses (1 g) were immersed in 100 g of a solution in which the test substance (the mixture of Example 1 or the mixture of Comparative Example 1 in Table 2 above) was dissolved at 0.1 wt % (wherein the solution is a solution in which the test substance (0.1 wt %) is dissolved in purified water (remaining amount) for about 30 minutes. The immersed hair tresses were rinsed in running water for 1 minute and then naturally dried for more than 12 hours. Thirty hair strands were randomly selected from each hair tresses treated with the test substance. Thirty hair strands were randomly selected from the control hair tresses that were not treated with the test substance. The tensile strength of each selected hair was measured using an MTT175 (manufactured by DiaStron) device.
The tensile strength was compared by applying the test substance (the above 5 types of tripeptides) to the hair using the same method as in ‘Experimental Example 2. (1) Measurement of tensile strength’.
as §1, with “(synthesized tripeptide)” for “(the mixture of Example 1 or the mixture of Comparative Example 1 in Table 2 above)”, “0.01” for “0.1”, “(0.01” for “(0.1”, “(residue) and ethanol (80 wt %))” for “(remaining amount)”
Specifically, the tripeptide was synthesized using the same method as the peptide synthesis method of ‘Experimental Example 3’ above, but palmitic acid was added to the N-terminus of the peptide (reagents: HBTU (Hexafluorophosphate Benzotriazole), NMM (N-Methylmorpholine), DMF (Dimethylformamide), 1 hour at room temperature, concentration 0.3 M), and a tripeptide with palmitic acid covalently bonded to the N-terminus (i.e., palmitoyl tripeptide) was synthesized. After that, the test substance (tripeptide with palmitic acid covalently bonded to the N-terminus) was applied to the hair and the tensile strength was compared using the same method as in ‘Experimental Example 3. (1) Measurement of tensile strength’.

hair structural proteins = assay: Denaturation enthalpy of hair structural proteins by DSC; conditions: bleached hair, test substance 0.01 wt % in purified water and ethanol (80 wt %), 30 minutes; FIG. 3
Description: The denaturation enthalpy of hair structural proteins was compared according to whether or not the test substance was treated using a DSC (Differential Scanning calorimetry) analyzer. DSC is used as an analysis method to confirm the stability of hair structural proteins. Damage to the hair reduces the stability of hair structural proteins and decreases the enthalpy of denaturation. Specifically, bleached hair tresses (1 g. manufactured by Beaulax) were prepared. The hair tresses were washed using a basic shampoo without a conditioning function, rinsed for 1 minute, and dried for 2 minutes. The dried hair tresses (1 g) were immersed in 100 g of a solution in which the test substance (mixture of Example 1 in Table 2 above) was dissolved at 0.01 wt % (at this time, the solution is a solution in which the mixture of Example 1 (0.01 wt %) is dissolved in purified water (residue) and ethanol (80 wt %)) for 30 minutes. The immersed hair tresses were rinsed in running water for 1 minute and then naturally dried for more than 12 hours. Each treated hair tress was cut into 1 mm lengths, placed in an aluminum high-pressure capsule with 3-5 mg of the cut hair tress and 6-15 mg of distilled water, and combined. […] The denaturation enthalpies of the prepared DSC samples were measured using a DSC (Discovery DSC 250, TA Instruments) device (50-190 degrees, 10 degrees/min).
The denaturation enthalpy was measured by the same method as in ‘Experimental Example 2. (2) Measurement of denaturation enthalpy’, but the denaturation enthalpy was compared by applying applied CWK tripeptide as a test substance to hair.
The denaturation enthalpy was measured by the same method as in ‘Experimental Example 2. (2) Measurement of denaturation enthalpy’, but the denaturation enthalpy was compared by applying a tripeptide with palmitic acid covalently bonded to the N-terminus (i.e. palmitoyl tripeptide) to hair as the test substance.

[3] = Tensile strength of heat-treated hair simulating eyebrows (Fibra.one); design: species or system human; conditions: hair heat-treated at 160° C. 20 times, then 0.01 wt % test substance in purified water, about 30 minutes; FIG. 9
Description: (§2) Specifically, since it is difficult to obtain eyebrows to be used for evaluation directly from a living body, human hair corresponding to the thickness of eyebrows was selected through Fibra.one (manufactured by DiaStron). The length was prepared to a level that can be applied to a machine measuring tensile strength. Heat-treated hair was prepared by applying pressure by hand at 160° C. 20 times with a hair straightener to the prepared human hair tresses. Hair that had not been heat-treated was prepared as a control group (untreated hair in FIGS. 9 and 11). In Experimental Example 6, the untreated hair was not treated with the test substance.
(§3) After that, the heat-treated hair tresses were treated with the test substance, KCV (KCV-treated hair in FIGS. 9 and 11). Specifically, the prepared tresses (1 g, manufactured by Beaulax) were washed using a basic cleanser without conditioning function, rinsed for 1 minute, and dried for 2 minutes. […]
Specifically, 30 hair strands were randomly selected from each tress (KCV-treated hair) treated with the test substance. […] The tensile strength of each selected hair was measured using a Fibra.one (manufactured by DiaStron).

[4] = Elasticity (horizontal resistance) of heat-treated hair simulating eyebrows; design: species or system human; conditions: hair heat-treated at 160° C. 20 times, then 0.01 wt % test substance in purified water, about 30 minutes; FIG. 11
Description: as §2, §3
The elasticity of KCV-treated hair, heat-damaged hair, and untreated hair was compared. Elasticity was defined as the horizontal resistance of hair, and elasticity was measured through each step of [Method for Measuring Hair Elasticity] below (see FIG. 10). […]

Compound	tensile strength of hair compared to control bleached hair tresses [2]	denaturation enthalpy of hair structural protein compared to control hair (hair structural proteins)	further results
CN(C)c1ccc(C=C2SC(=S)NC2=O)cc1 [5-(4-Dimethylaminobenzylidene) rhodanine]	–	–	penetration and binding in hair (colored areas) [1]: barely remained in the cuticle layer on the hair surface and did not fill the lost area of CMC inside the hair
CKF	significantly increased	–	–
CWK	significantly increased	significantly increased	–
KCL	significantly increased	–	–
KCV	significantly increased	–	tensile strength (break load) per area compared to heat-damaged hair tresses [3]: significantly increased; elasticity compared to heat-damaged hair tresses [4]: significantly increased
PCP [reference compound]	not significant	–	–
palmitoyl-CKF [pal-CKF]	significantly increased	significantly increased	–
palmitoyl-CWK [pal-CWK]	significantly increased	significantly increased	–
palmitoyl-KCV [pal-KCV]	significantly increased	significantly increased	–
